Data from article PMC12736255, “Reinvestigating Pyrrol-2-One-Based Compounds: From Antimicrobial Agents to Promising Antitumor Candidates” (Pharmaceuticals, 2025).

What was measured:
Test in all cases: NCI-60 single-dose screen
Assay type in all cases: cell-based
[1] = system: 786-0; conditions: Homo sapiens; 786-0, 10^–5 M; read-out: GI (%)
Outline: (§1)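 Single-dose screen at 10^−5 M across the NCI 60-human-tumor-cell-line panel.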

[2] = system: A498; conditions: Homo sapiens; A498, 10^–5 M; read-out: GI (%)
Outline: as §1

[3] = system: CAKI-1; conditions: Homo sapiens; CAKI-1, 10^–5 M; read-out: GI (%)
Outline: as §1

[4] = system: CCRF-CEM; conditions: Homo sapiens, 10^–5 M, read-out: GI (%)
Outline: as §1

[5] = system: COLO205; conditions: Homo sapiens, COLO 205; COLO205, 10^–5 M; read-out: GI (%)
Outline: as §1

[6] = system: DU-145; conditions: Homo sapiens; DU-145, 10^–5 M; read-out: GI (%)
Outline: as §1

[7] = system: HCC-2998; conditions: Homo sapiens; HCC-2998, 10^–5 M; read-out: GI (%)
Outline: as §1

[8] = system: HCT-15; conditions: Homo sapiens; HCT-15, 10^–5 M; read-out: GI (%)
Outline: as §1

[9] = system: HL-60(TB); conditions: Homo sapiens, 10^–5 M, read-out: GI (%)
Outline: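 Screening was run by the National Cancer Institute at one dose (10^−5 M) in its 60-line human cancer panel.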

[10] = system: HOP-92; conditions: Homo sapiens; HOP-92, 10^–5 M; read-out: GI (%)
Outline: as §1

[11] = system: HT-29; conditions: Homo sapiens; HT-29, 10^–5 M; read-out: GI (%)
Outline: as §1

[12] = system: IGROV1; conditions: Homo sapiens, IGROV-1; IGROV1, 10^–5 M; read-out: GI (%)
Outline: as §1

[13] = system: K-562; conditions: Homo sapiens, K562; K-562, 10^–5 M; read-out: GI (%)
Outline: as §1

[14] = system: KM12; conditions: Homo sapiens; KM12, 10^–5 M; read-out: GI (%)
Outline: as §1

[15] = system: LOX IMVI; conditions: Homo sapiens, 10^–5 M, read-out: GI (%)
Outline: as §1

[16] = system: M14; conditions: Homo sapiens; M14, 10^–5 M; read-out: GI (%)
Outline: as §1

[17] = system: MALME-3M; conditions: Homo sapiens, 10^–5 M, read-out: GI (%)
Outline: as §1

[18] = system: MDA-MB-231/ATCC; conditions: Homo sapiens, 10^–5 M, read-out: GI (%)
Outline: as §1

[19] = system: NCI-H23; conditions: Homo sapiens; NCI-H23, 10^–5 M; read-out: GI (%)
Outline: as §1

[20] = system: NCI-H322M; conditions: Homo sapiens, 10^–5 M, read-out: GI (%)
Outline: as §1

[21] = system: NCI-H460; conditions: Homo sapiens; NCI-H460, 10^–5 M; read-out: GI (%)
Outline: as §1

[22] = system: NCI-H522; conditions: Homo sapiens; NCI-H522, 10^–5 M; read-out: GI (%)
Outline: as §1

[23] = system: OVCAR-3; conditions: Homo sapiens; OVCAR-3, 10^–5 M; read-out: GI (%)
Outline: as §1

[24] = system: OVCAR-4; conditions: Homo sapiens; OVCAR-4, 10^–5 M; read-out: GI (%)
Outline: as §1

[25] = system: OVCAR-8; conditions: Homo sapiens; OVCAR-8, 10^–5 M; read-out: GI (%)
Outline: as §1

[26] = system: PC-3; conditions: Homo sapiens, PC-3, PC-3, 10^–5 M; read-out: GI (%)
Outline: as §1

[27] = system: RPMI-8226; conditions: Homo sapiens; RPMI-8226, 10^–5 M; read-out: GI (%)
Outline: as §1

[28] = system: SF-268; conditions: Homo sapiens; SF-268, 10^–5 M; read-out: GI (%)
Outline: as §1

[29] = system: SF-539; conditions: Homo sapiens; SF-539, 10^–5 M; read-out: GI (%)
Outline: as §1

[30] = system: SK-MEL-2; conditions: Homo sapiens; SK-MEL-2, 10^–5 M; read-out: GI (%)
Outline: as §1

[31] = system: SK-MEL-5; conditions: Homo sapiens; SK-MEL-5, 10^–5 M; read-out: GI (%)
Outline: as §1

[32] = system: SK-OV-3; conditions: Homo sapiens; SK-OV-3, 10^–5 M; read-out: GI (%)
Outline: as §1

[33] = system: SNB-75; conditions: Homo sapiens; SNB-75, 10^–5 M; read-out: GI (%)
Outline: as §1

[34] = system: SR; conditions: Homo sapiens, 10^–5 M, read-out: GI (%)
Outline: as §1

[35] = system: SW-620; conditions: Homo sapiens; SW-620, 10^–5 M; read-out: GI (%)
Outline: as §1

[36] = system: TK-10; conditions: Homo sapiens; TK-10, 10^–5 M; read-out: GI (%)
Outline: as §1

[37] = system: UACC-257; conditions: Homo sapiens; UACC-257, 10^–5 M; read-out: GI (%)
Outline: as §1

| SMILES | inhibition at 10 µM [1] [%] | inhibition at 10 µM [2] [%] | inhibition at 10 µM [3] [%] | inhibition at 10 µM [4] [%] | inhibition at 10 µM [5] [%] | inhibition at 10 µM [6] [%] | inhibition at 10 µM [7] [%] | inhibition at 10 µM [8] [%] | inhibition at 10 µM [9] [%] | inhibition at 10 µM [10] [%] | inhibition at 10 µM [11] [%] | inhibition at 10 µM [12] [%] | inhibition at 10 µM [13] [%] | inhibition at 10 µM [14] [%] | inhibition at 10 µM [15] [%] | inhibition at 10 µM [16] [%] | inhibition at 10 µM [17] [%] | inhibition at 10 µM [18] [%] | inhibition at 10 µM [19] [%] | inhibition at 10 µM [20] [%] | also measured |
| --- | --- | --- | --- | --- | --- | --- | --- | --- | --- | --- | --- | --- | --- | --- | --- | --- | --- | --- | --- | --- | --- |
| N#Cc1ccc(C2C=C(Nc3ccc(I)cc3)C(=O)N2c2ccc(I)cc2)cc1 (stereo not drawn) [3l] | 55 | 88 | 62 | 74 | 46 | 37 | 50 | 21 | 0 | 75 | 40 | 54 | 14 | 52 | 89 | 63 | 46 | 100 | 36 | 51 | inhibition at 10 µM [21]: 40%; inhibition at 10 µM [22]: 32%; inhibition at 10 µM [23]: 60%; inhibition at 10 µM [24]: 100%; inhibition at 10 µM [25]: 30%; inhibition at 10 µM [26]: 45%; inhibition at 10 µM [27]: 83%; inhibition at 10 µM [28]: 93%; inhibition at 10 µM [29]: 35%; inhibition at 10 µM [30]: 100%; inhibition at 10 µM [31]: 24%; inhibition at 10 µM [32]: 75%; inhibition at 10 µM [33]: 100%; inhibition at 10 µM [34]: 87%; inhibition at 10 µM [35]: 50%; inhibition at 10 µM [36]: 99%; inhibition at 10 µM [37]: 21% |
| O=C1C(Nc2ccc(I)cc2)=CC(c2ccco2)N1c1ccc(I)cc1 (stereo not drawn) [3m] | 36 | 12 | 53 | 59 | 8 | 0 | 10 | 16 | 30 | 29 | 6 | 8 | 14 | 48 | 63 | 4 | 34 | 11 | 19 | 19 | inhibition at 10 µM [21]: 0%; inhibition at 10 µM [22]: 31%; inhibition at 10 µM [23]: 8%; inhibition at 10 µM [24]: 0%; inhibition at 10 µM [25]: 11%; inhibition at 10 µM [26]: 28%; inhibition at 10 µM [27]: 93%; inhibition at 10 µM [28]: 79%; inhibition at 10 µM [29]: 63%; inhibition at 10 µM [30]: 100%; inhibition at 10 µM [31]: 17%; inhibition at 10 µM [32]: 67%; inhibition at 10 µM [33]: 9%; inhibition at 10 µM [34]: 76%; inhibition at 10 µM [35]: 16%; inhibition at 10 µM [36]: 7%; inhibition at 10 µM [37]: 32% |
| O=C1C(Nc2ccc(I)cc2)=CC(c2ccc3c(c2)OCO3)N1c1ccc(I)cc1 (stereo not drawn) [3n] | 9 | 16 | 16 | 3 | 5 | 0 | 6 | 9 | 16 | 4 | 5 | 5 | 6 | 19 | 10 | 5 | 0 | 0 | 18 | 3 | inhibition at 10 µM [21]: 3%; inhibition at 10 µM [22]: 26%; inhibition at 10 µM [23]: 10%; inhibition at 10 µM [24]: 14%; inhibition at 10 µM [25]: 0%; inhibition at 10 µM [26]: 1%; inhibition at 10 µM [27]: 20%; inhibition at 10 µM [28]: 25%; inhibition at 10 µM [29]: 87%; inhibition at 10 µM [30]: 56%; inhibition at 10 µM [31]: 1%; inhibition at 10 µM [32]: 13%; inhibition at 10 µM [33]: 20%; inhibition at 10 µM [34]: 27%; inhibition at 10 µM [35]: 9%; inhibition at 10 µM [36]: 0%; inhibition at 10 µM [37]: 0% |
